Laboratory results taken from patent US9155752B2, “Liver function-improving agent” (UENO FINE CHEMICALS INDUSTRY, LTD., priority 2012, dated 2015).
“Also recorded” adds a separate entry of the source.

Tested on: NASH mice
Test: F4/80 immunostaining of liver, inflammation area % (Test Example 3)
Type: in vivo
Settings: for Inflammation area %, Significant difference: Bonferroni, 5% level, tendency at 10% level; for Inflammation area % (F4/80 immunostaining), mean ± standard deviation: 8 weeks of age
Description: A solid diet CE-2 (lipid 4.6% by weight, manufactured by CLEA Japan, Inc.) was used as a normal diet. A solid diet, High Fat Diet 32 (lipid 32.0% by weight, sucrose 6.75% by weight, manufactured by CLEA Japan, Inc.), was used as a sucrose-containing high fat diet. As a maltitol-containing high-fat diet, a special diet (lipid 32.0% by weight, maltitol 6.08% by weight; manufactured by CLEA Japan, Inc.) obtained by replacing the total amount (6.75% by weight) of sucrose in a solid diet, High Fat Diet 32, with powdered maltitol (Whole Crystalline Maltitol Ueno 60M (purity of maltitol: 90%), manufactured by Ueno Fine Chemicals Industry Ltd.) was used. Sodium hypochlorite (PURELOX-S, manufactured by OYALOX Co., Ltd.) was added to pure water prepared by Elix-UV pure water producing apparatus, to a final concentration of 0.00009%, so that pure water for use in the test was obtained. An aqueous maltitol solution was prepared by dissolving powdered maltitol (Whole Crystalline Maltitol Ueno 60M (purity of maltitol: 90%), manufactured by Ueno Fine Chemicals Industry Ltd.) in pure water to a concentration of 1.8% (weight/volume). The purity of maltitol in the aqueous maltitol solution was 1.62%. Twenty-one female SPF mice (C57BL/6J, produced by CLEA Japan, Inc.) on day 14 of pregnancy were purchased and acclimation was performed. All animals were allowed to make a natural birth and a born male was used to produce a model. In addition, the weaning was at 4 weeks after birth. Streptozotocin (Sigma-Aldrich Japan K.K.) was adjusted to a concentration of 10 mg/mL with a physiological saline solution (manufactured by Otsuka Pharmaceutical Factory, Inc.) and the solution was subcutaneously administered once to the back of 2-day-old male mice at a dose of 20 μL/mouse (200 μg/mouse). Afterwards, the mother animal took care of the baby until weaning. The weaning was on day 28±2 after birth. After the weaning, a normal diet was supplied ad libitum to animals receiving no streptozotocin (normal mice (group S1 and group 1)), and a sucrose-containing high fat diet was supplied ad libitum to animals receiving streptozotocin (NASH mice (group S2, group 2, group 3, and group 4). A normal diet was supplied ad libitum to normal mice (group 1). With respect to NASH mice, a sucrose-containing high fat diet was supplied ad libitum to the sucrose group (group 2), and a maltitol-containing high fat diet was supplied ad libitum to the maltitol-low dose group (group 3) and the maltitol-high dose group (group 4). An aqueous maltitol solution was supplied ad libitum only to the maltitol-high dose group (group 4) of 5 to 8 weeks of age, and pure water was supplied ad libitum to the groups other than group 4 of 5 to 8 weeks of age. Six male animals per group were assigned to groups S1 and S2, reared up to 5 weeks of age, and then necropsied. Eight male animals per group were assigned to groups 1, 2, 3 and 4, reared up to 8 weeks of age, and then necropsied. At scheduled necropsy of the animals of 5 or 8 weeks of age, all individuals were anesthetized with diethyl ether (manufactured by Sigma-Aldrich Japan K.K.) and a needle through which heparin sodium (Novo Heparin Injection 1000, manufactured by Mochida Pharmaceutical Co., Ltd.) had been passed was punctured to the heart to aspirate the whole blood, leading to euthanasia, followed by harvest of the organ. […]

| Structure (SMILES) | Inflammation area %, Significant difference (Group 3 (low-dose maltitol) vs sucrose group (group 2)) | Inflammation area % (F4/80 immunostaining), mean ± standard deviation (Group 3, low-dose maltitol: HFD32-M (maltitol 6.08%) + pure water) [%] | Inflammation area %, Significant difference (Group 4 (high-dose maltitol) vs sucrose group (group 2)) | Inflammation area % (F4/80 immunostaining), mean ± standard deviation (Group 4, high-dose maltitol: HFD32-M (maltitol 6.08%) + aqueous maltitol solution 1.62%) [%] | Inflammation area % (F4/80 immunostaining), mean ± standard deviation (Group 2, sucrose group: HFD32 (sucrose 6.75%) + pure water) [%] |
| --- | --- | --- | --- | --- | --- |
| OC[C@@H](O)[C@@H](O[C@H]1O[C@H](CO)[C@@H](O)[C@H](O)[C@H]1O)[C@H](O)[C@@H](O)CO [maltitol] | No significant difference and No | 3.04 ± 1.55 | tendency to be low; also recorded: Tendency to be different | 2.46 ± 0.44 | – |
| OC[C@H]1O[C@@](CO)(O[C@H]2O[C@H](CO)[C@@H](O)[C@H](O)[C@H]2O)[C@@H](O)[C@@H]1O [sucrose, reference compound] | – | – | – | – | 3.28 ± 0.95 |
